Results as given in PubChem BioAssay (NCI).
Values joined by “and” are separate entries in the source; they are usually repeats but may differ in a detail not shown here. Equal entries are not always repeated.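 Step 1: Grow cells in 96-well plates. Step 2: Expose to compound for 48 hours at 5 concentrations. Step 3: Interpolate endpoints linearly; if unreached, use highest concentration. Abbreviation: GI50, concentration required for 50% inhibition of growth. TGI is the concentration that stops growth completely.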

Columns and labels:
Test in all cases: NCI tumour cell line growth inhibition, 48 h
KM20L2 colon = tested on: KM20L2 colon
SF-539 CNS = tested on: SF-539 CNS
SR leukemia = tested on: SR leukemia
CAKI-1 renal = tested on: CAKI-1 renal
LXFL 529 NSCLC = tested on: LXFL 529 NSCLC
RXF 393 renal = tested on: RXF 393 renal
TK-10 renal = tested on: TK-10 renal
OVCAR-8 ovarian = tested on: OVCAR-8 ovarian
786-0 renal = tested on: 786-0 renal
HOP-18 NSCLC = tested on: HOP-18 NSCLC
UACC-62 melanoma = tested on: UACC-62 melanoma
COLO 205 colon = tested on: COLO 205 colon
HT29 colon = tested on: HT29 colon
A549 NSCLC = tested on: A549 NSCLC
SNB-19 CNS = tested on: SNB-19 CNS
P388 leukemia = tested on: P388 leukemia
HCT-116 colon = tested on: HCT-116 colon
IGROV1 ovarian = tested on: IGROV1 ovarian
SN12K1 renal = tested on: SN12K1 renal

CCCCCCCCCCCC[C@@H](O)[C@H]1CC[C@H]([C@H](O)CCCC[C@H](O)CCCCC[C@@H](O)CC2=C[C@H](C)OC2=O)O1
TGI (KM20L2 colon): 8.96 µM
GI50 (SF-539 CNS): 4.18 µM
TGI (SF-539 CNS): 5.59 µM and 11.2 µM
GI50 (SR leukemia): 1.11 µM
TGI (SR leukemia): 3.87 µM
GI50 (CAKI-1 renal): 5.39 µM
TGI (CAKI-1 renal): 10.5 µM
TGI (LXFL 529 NSCLC): 10.8 µM
TGI (RXF 393 renal): 8.02 µM
GI50 (TK-10 renal): 3.94 µM
TGI (TK-10 renal): 6.59 µM and 15.3 µM
GI50 (OVCAR-8 ovarian): 3.09 µM
TGI (OVCAR-8 ovarian): 5.8 µM and 20.3 µM
TGI (786-0 renal): 6.42 µM and 8.45 µM
TGI (HOP-18 NSCLC): 15.5 µM
TGI (UACC-62 melanoma): 5.14 µM and 6.06 µM
GI50 (COLO 205 colon): 3.47 µM
TGI (COLO 205 colon): 3.52 µM
TGI (HT29 colon): 5.64 µM and 8.54 µM
GI50 (A549 NSCLC): 1.71 µM
TGI (A549 NSCLC): 8.37 µM and 11.3 µM
GI50 (SNB-19 CNS): 2.32 µM
TGI (SNB-19 CNS): 5.45 µM and 11.4 µM
TGI (P388 leukemia): 3.76 µM
GI50 (HCT-116 colon): 0.425 µM
TGI (HCT-116 colon): 5.2 µM and 6.56 µM
GI50 (IGROV1 ovarian): 3.58 µM
TGI (IGROV1 ovarian): 6.05 µM and 8.67 µM

CCN(CC)CCOc1cccc2nc3c(cc12)Cn1c-3cc2c(c1=O)COC(=O)C2(O)CC (configuration not stated)
GI50 (KM20L2 colon): 2 µM
TGI (KM20L2 colon): 14.4 µM
GI50 (SF-539 CNS): 0.267 µM and 0.774 µM
TGI (SF-539 CNS): 1.47 µM and 3.93 µM
GI50 (SR leukemia): 0.169 µM
TGI (SR leukemia): 0.716 µM
GI50 (CAKI-1 renal): 0.889 µM
TGI (CAKI-1 renal): 13.8 µM
GI50 (RXF 393 renal): 1.4 µM and 10.6 µM
TGI (RXF 393 renal): 6.08 µM and 28.7 µM
GI50 (TK-10 renal): 26.7 µM
TGI (TK-10 renal): > 100 µM
GI50 (OVCAR-8 ovarian): 1.24 µM and 1.47 µM
TGI (OVCAR-8 ovarian): 30.8 µM and 15.4 µM
GI50 (786-0 renal): 0.595 µM
TGI (786-0 renal): 11.7 µM
GI50 (HOP-18 NSCLC): 2.34 µM and 2.65 µM
TGI (HOP-18 NSCLC): 9.93 µM and 18.9 µM
GI50 (SN12K1 renal): 1.03 µM and 1.18 µM
TGI (SN12K1 renal): 11.4 µM and 14.1 µM
GI50 (UACC-62 melanoma): 0.147 µM and 0.273 µM
TGI (UACC-62 melanoma): 0.955 µM and 1.56 µM
GI50 (COLO 205 colon): 6.58 µM and 1.94 µM
TGI (COLO 205 colon): 21.8 µM and 30.5 µM
GI50 (HT29 colon): 2.19 µM and 2.44 µM
TGI (HT29 colon): 12.7 µM and 13.5 µM
GI50 (A549 NSCLC): 0.787 µM and 2.06 µM
TGI (A549 NSCLC): 20.4 µM and 13 µM
GI50 (SNB-19 CNS): 0.329 µM and 0.87 µM
TGI (SNB-19 CNS): 30.6 µM and > 58.1 µM
GI50 (HCT-116 colon): 0.403 µM and 1.29 µM
TGI (HCT-116 colon): 10.9 µM and 14.2 µM
GI50 (IGROV1 ovarian): 5.77 µM and 4.63 µM
TGI (IGROV1 ovarian): 21.6 µM and > 44.8 µM
